Assay results: PMC6238005, “Sigma-2 Receptor/TMEM97 and PGRMC-1 Increase the Rate of Internalization of LDL by LDL Receptor through the Formation of a Ternary Complex” (Scientific Reports, 2018)
Where two headings read alike, the source gives them in different places.

Tests used:
σ2R [1] = target: T1, σ2R (Homo sapiens, UniProt Q5BJF2); conditions: cited from earlier work; for Kd: no reference given
T1 construct: cell membranes were incubated with [^3H]DTG; endogenous in cells; host or cells: HeLa control clone (non-specific CRISPR/Cas9 plasmid plus lentiCas9-Blast), membrane preparation
T1 sequence (Q5BJF2 whole entry): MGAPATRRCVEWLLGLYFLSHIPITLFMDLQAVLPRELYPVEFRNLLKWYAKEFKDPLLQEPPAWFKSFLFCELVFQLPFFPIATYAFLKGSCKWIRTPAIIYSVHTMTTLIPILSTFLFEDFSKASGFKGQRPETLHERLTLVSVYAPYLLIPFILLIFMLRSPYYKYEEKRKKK

HeLa cells = assay: Radiolabeled LDL uptake assay; format: cell-based; conditions: control HeLa cells, ligands 1 nM - 500 nM
Protocol: Radiolabeled LDL was prepared by incubating human LDL (50 μg/mL) (LP2, Millipore) with [^3H]cholesterol (final concentration 3 μCi/mL) in serum-free MEM for 24 hours at 37 °C, filtered using a 0.2 μm filter, and used immediately. Care was taken not to vortex LDL to avoid aggregation of particles.
Cells were plated on 6-well plates (1 × 10^5 cells per well) or for 96-well plates (1 × 10^4 cells per well) in MEM with 10% FBS, 100 I.U./ml penicillin, 100 µg/ml streptomycin, 2mM L-glutamine, and 1X MEM non-essential amino acids. After 24 hours, media was removed and cells were incubated with MEM containing 10% lipoprotein-depleted serum (LPDS) (AAJ65182AMG, Fisher Scientific) for an additional 24 hours. […] Cells were washed 3 times in PBS, incubated with scintillation fluid overnight, and counts per minute (cpm) were determined using a scintillation counter MicroBeta[2] Microplate counter 2450.

[2] = system: residual DTG binding site; assay: Saturation binding on TMEM97/PGRMC1 double KO HeLa cell membranes; conditions: Double KO/Cas9 HeLa cell membranes, N.B. = no binding
Protocol: (§1) For the cell membrane preparation for receptor binding, the cell pellets were taken out from the freezer, rinsed with 10 mL ice-cold PBS solution, and homogenized by using Wheaton overhead stirrer (120 Vac Overhead Stirrer, Millville, NJ, USA) at the speed of 2 for 30 sec. Then the cell solution was transferred to a 50 mL conical tube and centrifuged for 20 min at 31,000 × g, 4 °C. After centrifugation, the supernatant was discarded and the pellets were resuspended in 1 mL ice-cold PBS solution and stored at −80 °C freezer.
(§2) After incubation, the bound ligands were collected with a M-24 Brandel filtration system (Brandel, Gaithersburg, MD, USA) on the glass fiber papers (Whatman grade 934-AH, GE Healthcare Bio-Sciences, Pittsburgh, PA), and counted with a MicroBeta[2] Microplate counter 2450 or Wizard2 Automatic Gamma Counter 2470. All the Kd and Bmax values were calculated from a nonlinear regression method with Prism, and the protein concentrations were determined by the method of Lowry et al.[4] with BSA as a standard.

σ2R [3] = target: T1, σ2R; assay: Saturation binding on control (Scramble/Cas9) HeLa cell membranes
Protocol: as §1, §2

σ2R [4] = target: T1, σ2R; assay: Saturation binding on PGRMC1 KO HeLa cell membranes; conditions: PGRMC1 KO/Cas9 HeLa cell membranes
Protocol: as §1, §2

[5] = system: residual DTG binding site; assay: Saturation binding on TMEM97 KO HeLa cell membranes; conditions: for binding to TMEM97 KO HeLa cells: TMEM97 KO versus control, all three guide RNA sequences; for Kd: TMEM97 KO/Cas9 HeLa cell membranes, saturation binding, N.B. = no binding
Protocol: as §1, §2

[6] = σ2R, ligands previously described, read-out: Kd
[7] = control (Cas9) HeLa cell membranes, Supplementary Figure 2, duplicates, n=3

Structure (SMILES): COc1cc2c(cc1OC)CN(CCCCNC(=O)c1cc(I)cc(OC)c1OC)CC2 [RHM-4, N-(4-(6,7-dimethoxy-3,4-dihydroisoquinolin-2(1H)-yl)butyl)-2,3-dimethoxy-5-iodo-benzamide]
- Kd (σ2R [1]; [6]): ~0.2 nM
- effect on uptake of LDL labeled with [3H]cholesterol (HeLa cells): blocking the uptake of LDL

Structure (SMILES): COc1cc2c(cc1OC)CN(CCCCNC(=O)c1cc([125I])cc(OC)c1OC)CC2 [[^125I]RHM-4, [^125I]N-(4-(6,7-dimethoxy-3,4-dihydroisoquinolin-2(1 H)-yl)butyl)-2,3-dimethoxy-5-iodo-benzamide]
- Kd [2]: N.B.
- Bmax (σ2R [3]; Scramble/Cas9 control HeLa cell membranes): 2545 ± 37 fmol/mg
- Bmax (σ2R [3]; [7]): 2234.0 fmol/mg
- Bmax (σ2R [4]): 2475 ± 51 fmol/mg
- binding to TMEM97 KO HeLa cells [5]: complete reduction in binding
- Kd [5]: N.B.

Structure (SMILES): COc1cc2c(cc1OC)CN(CCCCNC(=O)c1cc(I)cc(OC)c1OC)CC2 [[^125I]RHM-4, [^125I]N-(4-(6,7-dimethoxy-3,4-dihydroisoquinolin-2(1 H)-yl)butyl)-2,3-dimethoxy-5-iodo-benzamide]
- Kd (σ2R [3]; Scramble/Cas9 control HeLa cell membranes, saturation binding, 1 μM (+)-pentazocine to mask σ1R for [3H]DTG): 0.88 ± 0.04 nM
- Kd (σ2R [3]; [7]): 1.1 ± 0.2 nM
- Kd (σ2R [4]; saturation binding): 2.66 ± 0.12 nM

Structure (SMILES): Cc1ccccc1N=C(N)Nc1ccccc1C [[^3H]DTG]
- Kd ([2]; read-out: Kd): 403 ± 110 nM
- binding to TMEM97 KO HeLa cells [5]: large, but incomplete, reduction
- Kd ([5]; read-out: Kd): 302 ± 80.2 nM

Structure (SMILES): COc1cc2c(cc1OC)CN(CCCCNC(=O)c1cc(C)ccc1OC)CC2 [RHM-1]
- Kd (σ2R [1]; [6]): ~0.66 nM

Structure (SMILES): COc1ccc(C)cc1NC(=O)OC1CC2CCCC(C1)N2CCCCCCCCCCN (stereo not drawn) [SW43]
- Kd (σ2R [1]; [6]): ~12 nM

Structure (SMILES): Cc1ccc2c(c1)[C@H]1CN(C)CC[C@H]1N2C(=O)CSc1nnnn1-c1ccc(Cl)cc1 [AG-205]
- Kd (σ2R [1]; against σ2R, read-out: Kd against σ2R): ~1000 nM
- Ki (σ2R [1]; displacing DTG, no unit and reference not given): ~1260 nM
